ChEMBL document CHEMBL1133410, “Synthesis of enantiomerically pure (+)- and (-)-18-methoxycoronaridine hydrochloride and their preliminary assessment as anti-addictive agents” (Bioorg Med Chem Lett, 2000)
Structures can show the parent of a compound that is named as a salt.

target: Mu-type opioid receptor (Bos taurus, UniProt P79350); assay: Binding affinity against Opioid receptor mu 1 of calf cortex using […] as radioligand
Sequence (P79350 whole entry): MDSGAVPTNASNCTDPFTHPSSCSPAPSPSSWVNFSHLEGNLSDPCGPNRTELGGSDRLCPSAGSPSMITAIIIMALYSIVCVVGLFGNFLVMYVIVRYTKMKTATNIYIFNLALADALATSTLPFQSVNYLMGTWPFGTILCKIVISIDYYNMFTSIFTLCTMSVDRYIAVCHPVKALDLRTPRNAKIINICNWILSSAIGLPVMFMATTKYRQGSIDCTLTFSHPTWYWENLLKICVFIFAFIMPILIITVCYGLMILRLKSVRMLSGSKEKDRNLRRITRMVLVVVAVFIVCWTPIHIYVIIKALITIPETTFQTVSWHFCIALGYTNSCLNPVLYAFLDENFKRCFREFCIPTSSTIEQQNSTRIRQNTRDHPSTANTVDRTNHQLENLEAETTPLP

| Compound | Ki |
| --- | --- |
| COCCC1CC2CN3CCc4c([nH]c5ccccc45)C(C(=O)OC)(C2)C13 (racemic) [ZOLUNICANT HYDROCHLORIDE] | 1100 nM |
| COCCC1CC2CN3CCc4c([nH]c5ccccc45)C(C(=O)OC)(C2)C13 (stereo in doubt; (+)) [ZOLUNICANT HYDROCHLORIDE] | 740 nM |
| COCCC1CC2CN3CCc4c([nH]c5ccccc45)C(C(=O)OC)(C2)C13 (stereo in doubt; (-)) [ZOLUNICANT HYDROCHLORIDE] | 13000 nM |
